Laboratory results from ChEMBL document CHEMBL2157914, “Synthesis, anti-inflammatory and antimicrobial evaluation of novel 1-acetyl-3,5-diaryl-4,5-dihydro (1H) pyrazole derivatives bearing urea, thiourea and sulfonamide moieties” (2012).
≈ marks a conversion by molar mass, not a printed value. Calls of active or inactive are those of the source. The rule behind the calls is not given here.

Legend:
Escherichia coli [1] = assay: Antibacterial activity against Escherichia coli MTCC 443 after 24 hrs by agar well diffusion method; assay type: functional; details: MTCC 443, 24 h
Aspergillus flavus [2] = assay: Ratio of miconazole MIC to compound MIC for Aspergillus flavus MTCC 277; assay type: functional
Aspergillus flavus [3] = assay: Antifungal activity against Aspergillus flavus MTCC 277 after 2 to 3 days by agar well diffusion method; assay type: functional
Staphylococcus aureus [4] = assay: Antibacterial activity against Staphylococcus aureus MTCC 96 after 24 hrs by agar well diffusion method; assay type: functional; details: MTCC 96, 24 h
THP-1 [5] = assay: Antiinflammatory activity in human THP1 cells assessed as inhibition of LPS-stimulated TNFalpha production at 10 uM incubated for 30 mins prior to LPS-challenge measured 24 hrs post LPS challenge by ELISA; assay type: functional
Salmonella typhimurium [6] = assay: Antibacterial activity against Salmonella typhimurium MTCC 98 after 24 hrs by agar well diffusion method; assay type: functional, Salmonella enterica subsp. enterica serovar Typhimurium; details: Salmonella enterica, MTCC 98, 24 h
THP-1 [7] = assay: Antiinflammatory activity in human THP1 cells assessed as inhibition of LPS-stimulated IL-6 production at 10 uM incubated for 30 mins prior to LPS-challenge measured 24 hrs post LPS-challenge by ELISA; assay type: functional
Candida albicans [8] = assay: Antifungal activity against Candida albicans MTCC 227 after 2 to 3 days by agar well diffusion method; assay type: functional
Fusarium solani [9] = assay: Antifungal activity against Fusarium solani MTCC 350 after 2 to 3 days by agar well diffusion method; assay type: functional
Candida albicans [10] = assay: Ratio of miconazole MIC to compound MIC for Candida albicans MTCC 227; assay type: functional
Aspergillus niger [11] = assay: Antifungal activity against Aspergillus niger MTCC 281 after 2 to 3 days by agar well diffusion method; assay type: functional
Bacillus subtilis [12] = assay: Antibacterial activity against Bacillus subtilis MTCC 441 after 24 hrs by agar well diffusion method; assay type: functional; details: MTCC 441, 24 h
Escherichia coli [13] = assay: Ratio of ciprofloxacin MIC to compound MIC for Escherichia coli MTCC 443; assay type: functional
Salmonella typhimurium [14] = assay: Ratio of ciprofloxacin MIC to compound MIC for Salmonella typhimurium MTCC 98; assay type: functional, Salmonella enterica subsp. enterica serovar Typhimurium
Fusarium solani [15] = assay: Ratio of miconazole MIC to compound MIC for Fusarium solani MTCC 350; assay type: functional
Staphylococcus aureus [16] = assay: Ratio of ciprofloxacin MIC to compound MIC for Staphylococcus aureus MTCC 96; assay type: functional
Aspergillus niger [17] = assay: Ratio of miconazole MIC to compound MIC for Aspergillus niger MTCC 281; assay type: functional
Aspergillus flavus [18] = assay: Antifungal activity against Aspergillus flavus MTCC 277 up to 200 ug/mL after 2 to 3 days by agar well diffusion method; assay type: functional, organism-based
Bacillus subtilis [19] = assay: Antibacterial activity against Bacillus subtilis MTCC 441 up to 200 ug/mL after 24 hrs by agar well diffusion method; assay type: functional, organism-based
Staphylococcus aureus [20] = assay: Antibacterial activity against Staphylococcus aureus MTCC 96 up to 200 ug/mL after 24 hrs by agar well diffusion method; assay type: functional, organism-based
Candida albicans [21] = assay: Antifungal activity against Candida albicans MTCC 227 up to 200 ug/mL after 2 to 3 days by agar well diffusion method; assay type: functional, organism-based
Escherichia coli [22] = assay: Antibacterial activity against Escherichia coli MTCC 443 up to 200 ug/mL after 24 hrs by agar well diffusion method; assay type: functional, organism-based
Salmonella typhimurium [23] = assay: Antibacterial activity against Salmonella typhimurium MTCC 98 up to 200 ug/mL after 24 hrs by agar well diffusion method; assay type: functional, organism-based; details: Salmonella enterica subsp. enterica serovar Typhimurium
Aspergillus niger [24] = assay: Antifungal activity against Aspergillus niger MTCC 281 up to 200 ug/mL after 2 to 3 days by agar well diffusion method; assay type: functional, organism-based
Fusarium solani [25] = assay: Antifungal activity against Fusarium solani MTCC 350 up to 200 ug/mL after 2 to 3 days by agar well diffusion method; assay type: functional, organism-based
Bacillus subtilis [26] = assay: Ratio of ciprofloxacin MIC to compound MIC for Bacillus subtilis MTCC 441; assay type: functional
THP-1 [27] = assay: Antiinflammatory activity in human THP1 cells assessed as inhibition of LPS-stimulated IL-6 production at 1 uM incubated for 30 mins prior to LPS-challenge measured 24 hrs post LPS-challenge by ELISA; assay type: functional
THP-1 [28] = assay: Antiinflammatory activity in human THP1 cells assessed as inhibition of LPS-stimulated TNFalpha production at 1 uM incubated for 30 mins prior to LPS-challenge measured 24 hrs post LPS-challenge by ELISA; assay type: functional

| SMILES | MIC (Escherichia coli [1]) | Ratio (Aspergillus flavus [2]) | MIC (Aspergillus flavus [3]) | MIC (Staphylococcus aureus [4]) | inhibition at 10 µM (THP-1 [5]) | MIC (Salmonella typhimurium [6]) | inhibition at 10 µM (THP-1 [7]) | MIC (Candida albicans [8]) | MIC (Fusarium solani [9]) | MIC (Aspergillus niger [11]) | MIC (Bacillus subtilis [12]) | Ratio (Fusarium solani [15]) | Activity (Aspergillus flavus [18]) | Activity (Bacillus subtilis [19]) | Activity (Staphylococcus aureus [20]) | Activity (Candida albicans [21]) | Activity (Escherichia coli [22]) | Activity (Salmonella typhimurium [23]) | Activity (Aspergillus niger [24]) | Activity (Fusarium solani [25]) | further results |
| --- | --- | --- | --- | --- | --- | --- | --- | --- | --- | --- | --- | --- | --- | --- | --- | --- | --- | --- | --- | --- | --- |
| COc1ccc(C2=NN(C(C)=O)C(c3ccc(NC(=O)Nc4ccc(C(F)(F)F)cc4)cc3)C2)cc1OC (stereo not drawn) | 15 µg/mL (≈ 28.5 µM) | 1.3 | 15 µg/mL (≈ 28.5 µM) | 25 µg/mL (≈ 47.5 µM) | 3% | 40 µg/mL (≈ 76 µM) | 21% | 15 µg/mL (≈ 28.5 µM) | 15 µg/mL (≈ 28.5 µM) | 25 µg/mL (≈ 47.5 µM) | 25 µg/mL (≈ 47.5 µM) | – | – | – | – | – | – | – | – | – | Ratio (Candida albicans [10]): 1.3 |
| COc1ccc(C2=NN(C(C)=O)C(c3ccc(NS(=O)(=O)c4ccc(C(F)(F)F)cc4Br)cc3)C2)cc1OC (stereo not drawn) | 10 µg/mL (≈ 16 µM) | 2 | 10 µg/mL (≈ 16 µM) | 10 µg/mL (≈ 16 µM) | 0% | 10 µg/mL (≈ 16 µM) | 8% | 20 µg/mL (≈ 31.9 µM) | 10 µg/mL (≈ 16 µM) | 10 µg/mL (≈ 16 µM) | 15 µg/mL (≈ 23.9 µM) | 1.5 | – | – | – | – | – | – | – | – | Ratio (Escherichia coli [13]): 1.5; Ratio (Salmonella typhimurium [14]): 2; Ratio (Staphylococcus aureus [16]): 2; Ratio (Aspergillus niger [17]): 1.5 |
| COc1ccc(C2=NN(C(C)=O)C(c3ccc(NS(=O)(=O)c4ccc(C(F)(F)F)cc4)cc3)C2)cc1OC (stereo not drawn) | 35 µg/mL (≈ 63.9 µM) | 2 | 10 µg/mL (≈ 18.3 µM) | 70 µg/mL (≈ 128 µM) | 0% | 25 µg/mL (≈ 45.7 µM) | 0% | 35 µg/mL (≈ 63.9 µM) | 10 µg/mL (≈ 18.3 µM) | 20 µg/mL (≈ 36.5 µM) | 55 µg/mL (≈ 100 µM) | 1.5 | – | – | – | – | – | – | – | – | – |
| COc1ccc(C2=NN(C(C)=O)C(c3ccc(NC(=S)Nc4cccc(C(F)(F)F)c4)cc3)C2)cc1OC (stereo not drawn) | – | – | – | – | 0% | – | 8% | – | – | – | – | – | inactive | inactive | inactive | inactive | inactive | inactive | inactive | inactive | – |
| COc1ccc(C2=NN(C(C)=O)C(c3ccc(NS(=O)(=O)c4ccc(C(F)(F)F)cc4Cl)cc3)C2)cc1OC (stereo not drawn) | 10 µg/mL (≈ 17.2 µM) | 1.5 | 15 µg/mL (≈ 25.8 µM) | 15 µg/mL (≈ 25.8 µM) | 38% | 15 µg/mL (≈ 25.8 µM) | 55% | 40 µg/mL (≈ 68.7 µM) | 10 µg/mL (≈ 17.2 µM) | 15 µg/mL (≈ 25.8 µM) | 10 µg/mL (≈ 17.2 µM) | 1.3 | – | – | – | – | – | – | – | – | Ratio (Escherichia coli [13]): 1.5; Ratio (Bacillus subtilis [26]): 1.5; Ratio (Salmonella typhimurium [14]): 1.3; Ratio (Staphylococcus aureus [16]): 1.3 |
| COc1ccc(C2=NN(C(C)=O)C(c3ccc(NC(=O)Nc4cc(F)ccc4C)cc3)C2)cc1OC (stereo not drawn) | 90 µg/mL (≈ 183 µM) | – | – | – | 28% | – | 31% | – | – | – | – | – | inactive | inactive | inactive | inactive | – | inactive | inactive | inactive | – |
| COc1ccc(C2=NN(C(C)=O)C(c3ccc(NC(=S)Nc4ccc(Cl)cc4)cc3)C2)cc1OC (stereo not drawn) | – | – | 90 µg/mL (≈ 177 µM) | – | 68% | – | 76% | 90 µg/mL (≈ 177 µM) | 90 µg/mL (≈ 177 µM) | – | 90 µg/mL (≈ 177 µM) | – | – | – | inactive | – | inactive | inactive | inactive | – | – |
| COc1ccc(C2=NN(C(C)=O)C(c3ccc(NC(=O)Nc4ccc(C)c(C)c4)cc3)C2)cc1OC (stereo not drawn) | – | – | 90 µg/mL (≈ 185 µM) | – | 18% | – | 30% | 90 µg/mL (≈ 185 µM) | 90 µg/mL (≈ 185 µM) | – | – | – | – | inactive | inactive | – | inactive | inactive | inactive | – | – |
| COc1ccc(C2=NN(C(C)=O)C(c3ccc(NC(=S)Nc4ccc(C)cc4)cc3)C2)cc1OC (stereo not drawn) | – | – | – | – | 0% | – | 3% | – | – | – | – | – | inactive | inactive | inactive | inactive | inactive | inactive | inactive | inactive | – |
| C[C@@H]1C[C@H]2[C@@H]3CCC4=CC(=O)C=C[C@]4(C)[C@@]3(F)[C@@H](O)C[C@]2(C)[C@@]1(O)C(=O)CO [DEXAMETHASONE] | – | – | – | – | – | – | – | – | – | – | – | – | – | – | – | – | – | – | – | – | inhibition at 1 µM (THP-1 [27]): 84%; inhibition at 1 µM (THP-1 [28]): 76% |
